Assay results as given in patent US20160263097A1 (Bristol-Myers Squibb Company, priority 2012, published 2016).
Several values for one entry are separate records, joined by “and”; a condition that tells them apart may be missing. Equal values may be shown once.

Experiments:
Type in all cases: in vivo, human
[1] = Safety assessments in the studies (adverse events, vital signs, ECGs, laboratory tests); conditions: healthy subjects in the studies, 5 or 10 mg single doses
Excerpt: Safety assessments were made based on adverse event reports and the results of vital sign measurements, ECGs, physical examinations, and clinical laboratory tests.

[2] = Study 3: open-label 3-way crossover, liquid formulation oral vs NGT with Boost Plus vs crushed tablet via NGT; conditions: for half-life / AUC(0-t) / AUC(0-inf) / Tmax: human, plasma, 5 mg; for Tmax: read-out: Tmax Median
Description: The apixaban liquid formulation was administered orally (PO), via nasogastric tube (NGT) with different flush media, or with an enteral meal (BOOST Plus®). Frel of a crushed tablet administered via NGT versus oral liquid formulation was also evaluated. […] The effect of different flush media [D5W and infant formula (Similac®)] and coadministered nutritional supplement (Boost Plus®) on the liquid formulation's bioavailability was assessed.
(§1) Three open-label, randomized, crossover studies were conducted. […] Serial pharmacokinetics samples were collected. […] Frel was defined as the ratio of AUCinf.
(§2) Key exclusion criteria included: (i) any history or evidence of abnormal bleeding or coagulation disorders, intracranial hemorrhage, or abnormal bleeding; (ii) any gastrointestinal surgery that could impact upon the absorption of study drug; and (iii) current or recent (within 3 months) gastrointestinal disease including, but not limited to dyspepsia, gastrointestinal ulcers, esophageal or gastric varices, or hemorrhoids.

[3] = Study 2: open-label 3-way crossover, liquid formulation oral vs NGT with D5W or infant formula flush; conditions: for half-life / Tmax / AUC(0-t) / AUC(0-inf): human, plasma, 5 mg
Description: (§3) Frel of a crushed tablet administered via NGT versus oral liquid formulation was also evaluated. […] The effect of different flush media [D5W and infant formula (Similac®)] and coadministered nutritional supplement (Boost Plus®) on the liquid formulation's bioavailability was assessed.
as §1, §2

[4] = Study 1: open-label 2-way crossover relative bioavailability, tablet vs oral liquid formulation; conditions: for Tmax / AUC(0-t) / AUC(0-inf) / half-life: human, plasma; for half-life: read-out: T1/2 Mean (converted)
Description: as §3, §1, §2

[5] = Study 1, Treatment A: 2 × 5 mg Phase 3 tablets, oral, healthy subjects

## COc1ccc(-n2nc(C(N)=O)c3c2C(=O)N(c2ccc(N4CCCCC4=O)cc2)CC3)cc1 [Apixaban, 4,5,6,7-tetrahydro-1-(4-methoxyphenyl)-7-oxo-6-[4-(2-oxo-1-piperidinyl)phenyl]-1H-pyrazolo[3,4-c]pyridine-3-carboxamide]
[1]
  safety and tolerability: safe and well tolerated
[2]; Study 3, TRT A: 5 mg oral liquid formulation (0.4 mg/mL × 12.5 mL) administered orally
  Cmax Geo. Mean (% CV): 177 ng/mL
[2]; Study 3, TRT A: 5 mg oral liquid formulation administered orally
  Cmax Adj.Geo.Mean: 179 ng/mL
[2]; Study 3, TRT B (liquid formulation after Boost Plus via NGT) versus oral liquid formulation
  Frel Geo. Mean: 0.813
[2]; Study 3, TRT B: 5 mg oral liquid formulation (0.4 mg/mL × 12.5 mL) after Boost Plus via NGT
  Cmax Geo. Mean (% CV): 121 ng/mL
[2]; Study 3, TRT B: 5 mg oral liquid formulation after Boost Plus via NGT
  Cmax Adj.Geo.Mean: 122 ng/mL
[2]; Study 3, TRT C (crushed tablet via NGT) versus oral liquid formulation
  Frel Geo. Mean: 0.951
[2]; Study 3, TRT C: 5 mg crushed tablet via NGT
  Cmax Adj.Geo.Mean: 158 ng/mL
[2]; Study 3, TRT C: 5 mg crushed tablet via NGT (suspended in 60 mL D5W)
  Cmax Geo. Mean (% CV): 158 ng/mL
[2]; Study 3, crushed tablet via NGT versus oral liquid formulation
  Frel: 95%
[2]; Study 3, liquid formulation with BOOST Plus via NGT versus oral liquid formulation
  Frel: 81%
[2]; Study 3, between the 3 treatments, read-out: mean T1/2
  half-life: 9.6 to 11.2 h
[2]; other: via nasogastric tube (NGT), Study 3, TRT C: 5 mg crushed tablet via NGT (suspended in 60 mL D5W), read-out: AUC(0-T) Geo. Mean (% CV)
  AUC(0-t): 1300 ng·h/mL
[2]; other: via nasogastric tube (NGT), Study 3, TRT C: 5 mg crushed tablet via NGT (suspended in 60 mL D5W), read-out: AUCinf Geo. Mean (% CV)
  AUC(0-inf): 1320 ng·h/mL
[2]; other: via nasogastric tube (NGT), Study 3, TRT C: 5 mg crushed tablet via NGT (suspended in 60 mL D5W), read-out: T1/2 Mean (converted)
  half-life: 10.4 h
[2]; other: via nasogastric tube (NGT), Study 3, TRT C: 5 mg crushed tablet via NGT (suspended in 60 mL D5W)
  Tmax: 1 h
[2]; other: via nasogastric tube (NGT), Study 3, TRT C: 5 mg crushed tablet via NGT, read-out: AUC(0-T) Adj.Geo.Mean
  AUC(0-t): 1300 ng·h/mL
[2]; other: via nasogastric tube (NGT), Study 3, TRT C: 5 mg crushed tablet via NGT, read-out: AUCinf Adj.Geo.Mean
  AUC(0-inf): 1330 ng·h/mL
[2]; po, Study 3, TRT A: 5 mg oral liquid formulation (0.4 mg/mL × 12.5 mL) administered orally, read-out: AUC(0-T) Geo. Mean (% CV)
  AUC(0-t): 1350 ng·h/mL
[2]; po, Study 3, TRT A: 5 mg oral liquid formulation (0.4 mg/mL × 12.5 mL) administered orally, read-out: AUCinf Geo. Mean (% CV)
  AUC(0-inf): 1380 ng·h/mL
[2]; po, Study 3, TRT A: 5 mg oral liquid formulation (0.4 mg/mL × 12.5 mL) administered orally, read-out: T1/2 Mean (converted)
  half-life: 11.2 h
[2]; po, Study 3, TRT A: 5 mg oral liquid formulation (0.4 mg/mL × 12.5 mL) administered orally
  Tmax: 1 h
[2]; po, Study 3, TRT A: 5 mg oral liquid formulation administered orally, read-out: AUC(0-T) Adj.Geo.Mean
  AUC(0-t): 1370 ng·h/mL
[2]; po, Study 3, TRT A: 5 mg oral liquid formulation administered orally, read-out: AUCinf Adj.Geo.Mean
  AUC(0-inf): 1400 ng·h/mL
[2]; po, Study 3, TRT B: 5 mg oral liquid formulation (0.4 mg/mL × 12.5 mL) after Boost Plus via NGT, read-out: AUC(0-T) Geo. Mean (% CV)
  AUC(0-t): 1100 ng·h/mL
[2]; po, Study 3, TRT B: 5 mg oral liquid formulation (0.4 mg/mL × 12.5 mL) after Boost Plus via NGT, read-out: AUCinf Geo. Mean (% CV)
  AUC(0-inf): 1120 ng·h/mL
[2]; po, Study 3, TRT B: 5 mg oral liquid formulation (0.4 mg/mL × 12.5 mL) after Boost Plus via NGT, read-out: T1/2 Mean (converted)
  half-life: 9.56 h
[2]; po, Study 3, TRT B: 5 mg oral liquid formulation (0.4 mg/mL × 12.5 mL) after Boost Plus via NGT
  Tmax: 3 h
[2]; po, Study 3, TRT B: 5 mg oral liquid formulation after Boost Plus via NGT, read-out: AUC(0-T) Adj.Geo.Mean
  AUC(0-t): 1110 ng·h/mL
[2]; po, Study 3, TRT B: 5 mg oral liquid formulation after Boost Plus via NGT, read-out: AUCinf Adj.Geo.Mean
  AUC(0-inf): 1140 ng·h/mL
[3]; Study 2, Treatment A: 5 mg (12.5 mL) liquid formulation by mouth via oral syringe
  Cmax Geo. Mean: 189 ng/mL
[3]; Study 2, Treatment A: liquid formulation by mouth
  Cmax Adj.Geo.Mean: 191 ng/mL
[3]; Study 2, Treatment B: liquid formulation via NGT, D5W flush
  Cmax Adj.Geo.Mean: 182 ng/mL
[3]; Study 2, Treatment C (NGT, infant formula flush) versus oral liquid formulation
  Frel Geo. Mean: 0.922
[3]; Study 2, Treatment C: 5 mg (12.5 mL) liquid formulation via NGT followed by 60 mL of infant formula via NGT
  Cmax Geo. Mean: 153 ng/mL
[3]; Study 2, Treatment C: liquid formulation via NGT, infant formula flush
  Cmax Adj.Geo.Mean: 154 ng/mL
[3]; Study 2, liquid formulation via NGT flushed with 60 mL infant formula versus oral liquid formulation
  Frel: 92.2% and 92%
[3]; Study 2, across the 3 treatments, read-out: mean T1/2 (converted)
  half-life: ~10.5 h
[3]; Study 2, across the 3 treatments, read-out: median Tmax
  Tmax: 0.5 to 1 h
[3]; oral, Study 2, Treatment A: liquid formulation by mouth, read-out: AUC(0-T) Adj.Geo.Mean
  AUC(0-t): 1270 ng·h/mL
[3]; oral, Study 2, Treatment A: liquid formulation by mouth, read-out: AUCinf Adj.Geo.Mean
  AUC(0-inf): 1290 ng·h/mL
[3]; other: via nasogastric tube (NGT), Study 2, Treatment B: liquid formulation via NGT, D5W flush, read-out: AUC(0-T) Adj.Geo.Mean
  AUC(0-t): 1230 ng·h/mL
[3]; other: via nasogastric tube (NGT), Study 2, Treatment B: liquid formulation via NGT, D5W flush, read-out: AUCinf Adj.Geo.Mean
  AUC(0-inf): 1250 ng·h/mL
[3]; other: via nasogastric tube (NGT), Study 2, Treatment C: liquid formulation via NGT, infant formula flush, read-out: AUC(0-T) Adj.Geo.Mean
  AUC(0-t): 1170 ng·h/mL
[3]; other: via nasogastric tube (NGT), Study 2, Treatment C: liquid formulation via NGT, infant formula flush, read-out: AUCinf Adj.Geo.Mean
  AUC(0-inf): 1190 ng·h/mL
[3]; po, Study 2, Treatment A: 5 mg (12.5 mL) liquid formulation by mouth via oral syringe, read-out: AUC(0-T) Geo. Mean
  AUC(0-t): 1260 ng·h/mL
[3]; po, Study 2, Treatment A: 5 mg (12.5 mL) liquid formulation by mouth via oral syringe, read-out: AUCinf Geo. Mean
  AUC(0-inf): 1280 ng·h/mL
[3]; po, Study 2, Treatment A: 5 mg (12.5 mL) liquid formulation by mouth via oral syringe, read-out: T1/2 Mean (converted)
  half-life: 10.5 h
[3]; po, Study 2, Treatment A: 5 mg (12.5 mL) liquid formulation by mouth via oral syringe, read-out: Tmax Median
  Tmax: 0.517 h
[3]; po, Study 2, Treatment B: 5 mg (12.5 mL) liquid formulation via NGT followed by 60 mL of D5W via NGT, read-out: AUC(0-T) Geo. Mean
  AUC(0-t): 1210 ng·h/mL
[3]; po, Study 2, Treatment B: 5 mg (12.5 mL) liquid formulation via NGT followed by 60 mL of D5W via NGT, read-out: AUCinf Geo. Mean
  AUC(0-inf): 1240 ng·h/mL
[3]; po, Study 2, Treatment B: 5 mg (12.5 mL) liquid formulation via NGT followed by 60 mL of D5W via NGT, read-out: T1/2 Mean (converted)
  half-life: 10.4 h
[3]; po, Study 2, Treatment B: 5 mg (12.5 mL) liquid formulation via NGT followed by 60 mL of D5W via NGT, read-out: Tmax Median
  Tmax: 1 h
[3]; po, Study 2, Treatment C: 5 mg (12.5 mL) liquid formulation via NGT followed by 60 mL of infant formula via NGT, read-out: AUC(0-T) Geo. Mean
  AUC(0-t): 1150 ng·h/mL
[3]; po, Study 2, Treatment C: 5 mg (12.5 mL) liquid formulation via NGT followed by 60 mL of infant formula via NGT, read-out: AUCinf Geo. Mean
  AUC(0-inf): 1180 ng·h/mL
[3]; po, Study 2, Treatment C: 5 mg (12.5 mL) liquid formulation via NGT followed by 60 mL of infant formula via NGT, read-out: T1/2 Mean (converted)
  half-life: 10.6 h
[3]; po, Study 2, Treatment C: 5 mg (12.5 mL) liquid formulation via NGT followed by 60 mL of infant formula via NGT, read-out: Tmax Median
  Tmax: 1 h
[4]; Study 1, Treatment A: 2 × 5 mg Phase 3 tablets
  Cmax Adj.Geo.Mean: 294 ng/mL
[4]; [5]
  Cmax Geo. Mean: 294 ng/mL
  Tmax Median: 2 h
[4]; Study 1, Treatment B: 25 mL × 0.4 mg/mL liquid formulation
  Cmax Adj.Geo.Mean: 287 ng/mL
[4]; Study 1, Treatment B: 25 mL × 0.4 mg/mL liquid formulation, oral, healthy subjects
  Cmax Geo. Mean: 287 ng/mL
[4]; 10 mg, Study 1, Treatment B: 25 mL × 0.4 mg/mL liquid formulation, oral, healthy subjects, read-out: Tmax Median
  Tmax: 2 h
[4]; oral, 10 mg, Study 1, Treatment A: 2 × 5 mg Phase 3 tablets, read-out: AUC(0-T) Adj.Geo.Mean
  AUC(0-t): 2670 ng·h/mL
[4]; oral, 10 mg, Study 1, Treatment A: 2 × 5 mg Phase 3 tablets, read-out: AUCinf Adj.Geo.Mean
  AUC(0-inf): 2710 ng·h/mL
[4]; oral, 10 mg, Study 1, Treatment B: 25 mL × 0.4 mg/mL liquid formulation, read-out: AUC(0-T) Adj.Geo.Mean
  AUC(0-t): 2780 ng·h/mL
[4]; oral, 10 mg, Study 1, Treatment B: 25 mL × 0.4 mg/mL liquid formulation, read-out: AUCinf Adj.Geo.Mean
  AUC(0-inf): 2850 ng·h/mL
[4]; po, 10 mg, Study 1, Treatment A: 2 × 5 mg Phase 3 tablets, oral, healthy subjects, read-out: AUC(0-T) Geo. Mean
  AUC(0-t): 2660 ng·h/mL
[4]; po, 10 mg, Study 1, Treatment A: 2 × 5 mg Phase 3 tablets, oral, healthy subjects, read-out: AUCinf Geo. Mean
  AUC(0-inf): 2710 ng·h/mL
[4]; po, 10 mg, Study 1, Treatment A: 2 × 5 mg Phase 3 tablets, oral, healthy subjects
  half-life: 12.3 h
[4]; po, 10 mg, Study 1, Treatment B: 25 mL × 0.4 mg/mL liquid formulation, oral, healthy subjects, read-out: AUC(0-T) Geo. Mean
  AUC(0-t): 2790 ng·h/mL
[4]; po, 10 mg, Study 1, Treatment B: 25 mL × 0.4 mg/mL liquid formulation, oral, healthy subjects, read-out: AUCinf Geo. Mean
  AUC(0-inf): 2860 ng·h/mL
[4]; po, 10 mg, Study 1, Treatment B: 25 mL × 0.4 mg/mL liquid formulation, oral, healthy subjects
  half-life: 13.8 h
[4]; summary over all treatments of Studies 1-3 except BOOST Plus, read-out: Tmax median
  Tmax: 0.5 to 2 h
